According to ChEMBL document CHEMBL2413072, “Synthesis and in vitro anticancer studies of novel C-2 arylidene congeners of lantadenes” (2013):
Active and inactive are the calls of the source. The calls are words filed in the database; no cut-off is given here.

Tests used:
Format in all cases: functional
A549 = assay: Growth inhibition of human A549/ATCC cells assessed as cell growth at 10^-4 M by sulforhodamine B assay; details: read-out: Activity
MDA-MB-468 [1] = assay: Growth inhibition of human MDA-MB-468 cells assessed as cell growth at 10^-6 M by sulforhodamine B assay; details: read-out: Activity
NCI-H522 = assay: Growth inhibition of human NCI-H522 cells assessed as cell growth at 10^-4 M by sulforhodamine B assay; details: read-out: Activity
SNB-19 = assay: Growth inhibition of human SNB19 cells assessed as cell growth at 10 uM by sulforhodamine B assay; details: read-out: Activity
OVCAR-4 = assay: Growth inhibition of human OVCAR4 cells assessed as cell growth at 10 uM by sulforhodamine B assay; details: read-out: Activity
RPMI-8226 = assay: Growth inhibition of human RPMI8226 cells by sulforhodamine B assay
HT-29 [2] = assay: Growth inhibition of human HT-29 cells assessed as growth inhibition at 10 uM by sulforhodamine B assay; details: read-out: GI
NCI-H460 [3] = assay: Growth inhibition of human NCI-H460 cells assessed as cell growth at 10^-6 M by sulforhodamine B assay; details: read-out: Activity
786-0 [4] = assay: Growth inhibition of human 786-0 cells assessed as cell growth at 10 uM by sulforhodamine B assay; details: read-out: Activity
K562 [5] = assay: Growth inhibition of human K562 cells assessed as cell growth at 10^-4 M by sulforhodamine B assay; details: read-out: Activity
MCF7 [6] = assay: Growth inhibition of human MCF7 cells assessed as cell growth at 10^-7 M by sulforhodamine B assay; details: read-out: Activity
NCI-H322M = assay: Growth inhibition of human NCI-H322M cells assessed as cell growth at 10^-8 M by sulforhodamine B assay; details: read-out: Activity
A498 = assay: Growth inhibition of human A498 cells by sulforhodamine B assay
OVCAR-3 = assay: Growth inhibition of human OVCAR3 cells assessed as cell growth at 10 uM by sulforhodamine B assay; details: read-out: Activity
OVCAR-8 [7] = assay: Growth inhibition of human OVCAR8 cells assessed as growth inhibition at 10 uM by sulforhodamine B assay; details: read-out: GI
[8] = Growth inhibition of human EKVX cells assessed as growth inhibition at 10 uM by sulforhodamine B assay; details: read-out: GI
SF-268 [9] = assay: Growth inhibition of human SF268 cells assessed as cell growth at 10^-6 M by sulforhodamine B assay; details: read-out: Activity
BT-549 = assay: Growth inhibition of human BT549 cells assessed as growth inhibition at 10 uM by sulforhodamine B assay; details: read-out: GI
UO-31 = assay: Growth inhibition of human UO31 cells assessed as cell growth at 10^-6 M by sulforhodamine B assay; details: read-out: Activity
KM12 = assay: Growth inhibition of human KM12 cells assessed as cell growth at 10 uM by sulforhodamine B assay; details: read-out: Activity
PC-3 = assay: Growth inhibition of human PC3 cells assessed as growth inhibition at 10 uM by sulforhodamine B assay; details: read-out: GI
SR = assay: Growth inhibition of human SR cells assessed as cell growth at 10 uM by sulforhodamine B assay; details: read-out: Activity
IGROV-1 = assay: Growth inhibition of human IGROV1 cells assessed as growth inhibition at 10 uM by sulforhodamine B assay; details: read-out: GI
NCI-H226 = assay: Growth inhibition of human NCI-H226 cells assessed as growth inhibition at 10 uM by sulforhodamine B assay; details: read-out: GI
OVCAR-8 [10] = assay: Growth inhibition of human OVCAR8 cells assessed as cell growth at 10 uM by sulforhodamine B assay; details: read-out: Activity
DU-145 = assay: Growth inhibition of human DU145 cells by sulforhodamine B assay
K562 [11] = assay: Growth inhibition of human K562 cells assessed as cell growth at 10^-7 M by sulforhodamine B assay; details: read-out: Activity
K562 [12] = assay: Growth inhibition of human K562 cells assessed as cell growth at 10^-8 M by sulforhodamine B assay; details: read-out: Activity
K562 [13] = assay: Growth inhibition of human K562 cells assessed as growth inhibition at 10 uM by sulforhodamine B assay; details: read-out: GI
HT-29 [14] = assay: Growth inhibition of human HT-29 cells assessed as cell growth at 10 uM by sulforhodamine B assay; details: read-out: Activity
UACC-62 = assay: Growth inhibition of human UACC62 cells assessed as growth inhibition at 10 uM by sulforhodamine B assay
786-0 [15] = assay: Growth inhibition of human 786-0 cells assessed as cell growth at 10^-8 M by sulforhodamine B assay; details: read-out: Activity
MDA-MB-468 [16] = assay: Growth inhibition of human MDA-MB-468 cells assessed as cell growth at 10^-4 M by sulforhodamine B assay; details: read-out: Activity
SNB-75 = assay: Growth inhibition of human SNB75 cells assessed as cell growth at 10^-4 M by sulforhodamine B assay; details: read-out: Activity
HOP-92 [17] = assay: Growth inhibition of human HOP92 cells assessed as growth inhibition at 10 uM by sulforhodamine B assay
[18] = Growth inhibition of human HCC2998 cells assessed as growth inhibition at 10 uM by sulforhodamine B assay; details: HCC 2998, read-out: GI
UACC-257 = assay: Growth inhibition of human UACC257 cells assessed as growth inhibition at 10 uM by sulforhodamine B assay; details: read-out: GI
SF-539 = assay: Growth inhibition of human SF539 cells assessed as cell growth at 10^-6 M by sulforhodamine B assay; details: read-out: Activity
NCI-H23 [19] = assay: Growth inhibition of human NCI-H23 cells assessed as growth inhibition at 10 uM by sulforhodamine B assay; details: read-out: GI
NCI-H23 [20] = assay: Growth inhibition of human NCI-H23 cells assessed as cell growth at 10^-6 M by sulforhodamine B assay; details: read-out: Activity
MCF7 [21] = assay: Growth inhibition of human MCF7 cells assessed as growth inhibition at 10 uM by sulforhodamine B assay; details: read-out: GI
NCI-H460 [22] = assay: Growth inhibition of human NCI-H460 cells assessed as cell growth at 10^-7 M by sulforhodamine B assay; details: read-out: Activity
T47D = assay: Growth inhibition of human T47D cells assessed as cell growth at 10^-6 M by sulforhodamine B assay; details: read-out: Activity
HOP-92 [23] = assay: Growth inhibition of human HOP92 cells assessed as cell growth at 10^-6 M by sulforhodamine B assay; details: read-out: Activity
SF-268 [24] = assay: Growth inhibition of human SF268 cells assessed as cell growth at 10^-7 M by sulforhodamine B assay; details: read-out: Activity
HOP-62 = assay: Growth inhibition of human HOP62 cells assessed as cell growth at 10^-4 M by sulforhodamine B assay; details: read-out: Activity
[25] = read-out: LC50 (the source's name)
[26] = read-out: pLC50 (the source's name) (converted)

C/C=C(/C)C(=O)O[C@@H]1CC(C)(C)C[C@H]2C3=CC[C@@H]4[C@@]5(C)CC[C@H](O)C(C)(C)[C@@H]5CC[C@@]4(C)[C@]3(C)CC[C@@]12C(=O)O [Reduced Lantadene A]
growth at 100 µM (A549): -59% | growth at 1 µM (MDA-MB-468 [1]): 84% | growth at 100 µM (NCI-H522): -66% | growth at 10 µM (SNB-19): -53% | growth at 10 µM (OVCAR-4): 63.2% | GI50 (RPMI-8226; read-out: GI50): 1.85 µM | CC50 (RPMI-8226; [25]): > 100 µM | TGI (RPMI-8226; read-out: TGI): 8.71 µM | GI50 (RPMI-8226; read-out: pGI50 (converted)): 1.86 µM | CC50 (RPMI-8226; [26]): > 100 µM | TGI (RPMI-8226; read-out: pTGI (converted)): 8.71 µM | inhibition of growth at 10 µM (HT-29 [2]): 44.2% | growth at 1 µM (NCI-H460 [3]): 89% | growth at 10 µM (786-0 [4]): -42.9% | growth at 100 µM (K562 [5]): -2% | growth at 0.1 µM (MCF7 [6]): 96% | growth at 0.01 µM (NCI-H322M): 102% | GI50 (A498; read-out: GI50): 1.54 µM | CC50 (A498; [25]): 7.38 µM | TGI (A498; read-out: TGI): 3.37 µM | GI50 (A498; read-out: pGI50 (converted)): 1.55 µM | CC50 (A498; [26]): 7.41 µM | TGI (A498; read-out: pTGI (converted)): 3.39 µM | growth at 10 µM (OVCAR-3): 32% | inhibition of growth at 10 µM (OVCAR-8 [7]): 42.3% | inhibition of growth at 10 µM [8]: 63.5% | growth at 1 µM (SF-268 [9]): 104% | inhibition of growth at 10 µM (BT-549): 73.9% | growth at 1 µM (UO-31): 89% | growth at 10 µM (KM12): 21.7% | inhibition of growth at 10 µM (PC-3): 66.7% | growth at 10 µM (SR): 61.9% | inhibition of growth at 10 µM (IGROV-1): 64.9% | inhibition of growth at 10 µM (NCI-H226): 57.9% | growth at 10 µM (OVCAR-8 [10]): 57.7% | GI50 (DU-145; read-out: GI50): 2.12 µM | TGI (DU-145; read-out: TGI): 4.04 µM | GI50 (DU-145; read-out: pGI50 (converted)): 2.14 µM | TGI (DU-145; read-out: pTGI (converted)): 4.07 µM | growth at 0.1 µM (K562 [11]): 105% | growth at 0.01 µM (K562 [12]): 107% | inhibition of growth at 10 µM (K562 [13]): 64.1% | growth at 10 µM (HT-29 [14]): 55.8% | growth inhibition (GI) (UACC-62): Active | growth at 0.01 µM (786-0 [15]): 101% | growth at 100 µM (MDA-MB-468 [16]): -86% | growth at 100 µM (SNB-75): -47% | growth inhibition (GI) (HOP-92 [17]): Active | inhibition of growth at 10 µM [18]: 73.6% | inhibition of growth at 10 µM (UACC-257): 39.4% | growth at 1 µM (SF-539): 101% | inhibition of growth at 10 µM (NCI-H23 [19]): 35.3% | growth at 1 µM (NCI-H23 [20]): 98% | inhibition of growth at 10 µM (MCF7 [21]): 39% | growth at 0.1 µM (NCI-H460 [22]): 99% | growth at 1 µM (T47D): 96% | growth at 1 µM (HOP-92 [23]): 73% | growth at 0.1 µM (SF-268 [24]): 106% | growth at 100 µM (HOP-62): -37%
